Series [1] relates to Jatropha curcas somatic embryos / somatic embryogenic calli. The conditions noted are these: TE7, AGL1 pST2eGFP.
Protocol: Embryogenic cell lines, for example, JS4 cell line, which was derived from a zygotic embryo of an Indonesian Jatropha curcas collection, were subcultured every week by transferring about 3 g of the cell mass to 20 ml J20P medium. 3-5 days after subculture, the embryogenic calli cell mass was collected.
Co-culture plates were made by pouring about 30 ml JIM2H solid medium to each 90 mm Petri dish. Alternatively, 3-4 sheets of cellulose filter paper can be soaked with JIM2H liquid medium before placing into a 90 mm Petri dish. One sheet of 82 mm Hybond N membrane was over-laid to the medium-soaked cellulose filter paper or solid JIM2H medium. About 0.75 g embryogenic calli was mixed with 200 ul Agrobacterium cells on the membrane. After one hour incubation at room temperature, excess liquid medium containing the Agrobacterium cells was removed. The plates were capped, sealed with 3M tape and incubated at 24° C. with dim light for 2-3 days.
Fresh colonies of AGL2 or AGL3 harboring pCambia1305.1 were inoculated into 30 ml LB medium that had been supplemented with 25 mg/l rifampicin and 50 mg/l kanamycin. Cells were cultured at 28° C., 200-230 RPM until OD600 reached 0.8-2.0. […]
In about 3 weeks, the embryos were transferred to G35-2 medium with 10 mg/l hygromycin. […] Rooted plantlets were ready for planting in soil in 2-3 weeks. […]
Series [2] relates to Somatic embryogenic calli from 4 different cell lines. The conditions noted are these: DPI at about 10 μM; AGL2(pCambia1305.1); LMP Bd2 embedding; two months selection; average of four cell lines.
Protocol: The co-culture medium JIM2 was supplemented with either 1 μM diphenyl iodonium (DPI), 5 μM DPI or a mixture of antioxidants with a final concentration of 1 mM Na-thiosulfate, 8.8 mM L-cysteine and 1 mM dithiothreitol (DTT). Hygromycin resistant somatic embryos were scored after two months selection. The number of somatic embryos derived from co-culture with DPI-free JIM2 (CK) was set at 100 in each cell line and the relative number of somatic embryos in other co-culture conditions was calculated by dividing the actual number by that of CK.
Somatic embryogenic calli from 4 different cell lines were co-cultured with AGL2(pCambia1305.1) and selection was done by the LMP Bd2 embedding method. The co-culture medium JIM2 was supplemented with either 1 μM DPI, 5 μM DPI or a mixture of antioxidants with a final concentration of 1 mM Na-thiosulfate, 8.8 mM L-cysteine and 1 mM DTT. Hygromycin resistant somatic embryos were scored after two months selection. In transformation using each cell line, the number of somatic embryos derived from co-culture with DPI-free JIM2 (CK) was set at 100 and relative number of somatic embryos in other co-culture conditions was calculated by dividing the actual number by that of CK.
Series [3] relates to Soybean embryogenic suspension culture (derived Peking 18). Particulars: 1 μM DPI in co-culture medium; pre-induced AGL1(pCambia1305.1); 2.5 day at 24° C.; 10 mg/l hygromycin selection; control about 40%. As for the experimental part: Soybean embryogenic suspension culture (derived Peking 18) was co-cultured for 2.5 day at 24° C. with pre-induced AGL1(pCambia1305.1) on nylon membrane, which was placed on top of solid medium (1M with 20 mg/l 2,4-D and B5 vitamins) that was supplemented with 1 μM DPI or 1 mM Na-thiosulfate, 8.8 mM L-cysteine and 1 mM DTT. After selection with 10 mg/l hygromycin, the calli clumps were stained with X-gluc.

A further series deals with Embryogenic calli. Briefly: X-gluc staining of calli immediately after 53 hours co-culture. It counts as cell-based, Jatropha curcas. Particulars: AS 200 μM, pCambia1305.1 bar. From the text: The calli were immediately stained with X-gluc and photographed.
The calli were immediately stained with X-gluc.

Molecules are shown by their SMILES.

With `NC[C@H]1O[C@H](O[C@H]2[C@H](O)[C@@H](O[C@H]3O[C@H](CO)[C@@H](O)[C@H](N)[C@H]3O)[C@H](N)C[C@@H]2N)[C@H](O)[C@@H](O)[C@@H]1O` [Kan, kanamycin], the “Kan selection concentration found OK” value in series [1] (Kan 0, 25, 50 and 80 mg/l tested, SE on solid medium) is recorded as 50-80 mg/l OK, heavy.
As for `c1ccc2c(c1)[I+]c1ccccc1-2` [DPI, diphenylene iodonium], the “Improvement of transformation efficiency (relative number of hygromycin resistant somatic embryos vs DPI-free JIM2)” value in series [2] is “more than 2 folds”. In addition, the “Effect of DPI on explants” value in series [1] (liquid medium SE) is listed as “DPI caused no damage on”. Also, the “calli clumps showing GUS staining” value in series [3] is listed as “more than 80%”.
`COc1cc(C(C)=O)cc(OC)c1O` [AS, acetosyringone]: the “Effect of AS on transformation efficiency in AGL2” value with Embryogenic calli is “further boosted transformation efficiency”.

Values taken from US10167479B2, “Agrobacterium strains for plant transformation” (priority 2009, dated 2019).
